Results on 2 molecules are retold here after ChEMBL document CHEMBL1152764, “Penicilliols A and B, novel inhibitors specific to mammalian Y-family DNA polymerases” (Bioorg Med Chem, 2009).

For the assay, the target named is T1, DNA polymerase iota (Mus musculus, UniProt Q6R3M4).
T1 sequence (Q6R3M4 whole entry): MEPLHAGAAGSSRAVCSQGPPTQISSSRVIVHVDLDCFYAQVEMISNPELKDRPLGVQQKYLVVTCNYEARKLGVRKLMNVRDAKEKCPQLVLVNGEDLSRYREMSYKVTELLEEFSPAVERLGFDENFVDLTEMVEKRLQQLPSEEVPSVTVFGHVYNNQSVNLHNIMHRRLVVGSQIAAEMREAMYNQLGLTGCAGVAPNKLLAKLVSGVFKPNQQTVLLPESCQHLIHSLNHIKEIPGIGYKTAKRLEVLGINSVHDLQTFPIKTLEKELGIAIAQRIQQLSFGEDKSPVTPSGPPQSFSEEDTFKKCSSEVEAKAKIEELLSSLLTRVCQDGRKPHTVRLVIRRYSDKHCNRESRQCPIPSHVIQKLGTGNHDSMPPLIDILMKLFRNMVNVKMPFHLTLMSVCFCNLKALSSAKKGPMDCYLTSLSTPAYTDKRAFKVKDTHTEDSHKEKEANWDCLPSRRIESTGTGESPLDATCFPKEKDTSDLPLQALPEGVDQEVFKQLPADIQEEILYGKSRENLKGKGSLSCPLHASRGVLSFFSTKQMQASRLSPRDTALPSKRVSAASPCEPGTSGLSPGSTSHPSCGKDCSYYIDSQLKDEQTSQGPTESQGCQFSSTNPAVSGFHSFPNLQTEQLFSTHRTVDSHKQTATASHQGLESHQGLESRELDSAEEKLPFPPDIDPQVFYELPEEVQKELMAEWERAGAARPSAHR
Description: Inhibition of mouse DNA polymerase iota.

Usually IC50 stands for the point on the concentration scale where inhibition reaches its midpoint. A lower IC50 goes with inhibition by little substance.

SMILES strings stand for the structures.

`C/C=C/C(=O)C1=C(OC)OC(C)(/C=C/C=C/C(C)O)C1=O` (configuration not stated) [PENICILLIOL A] came in with an IC50 of 19.8 µM. As for `COC1=C(C(=O)CC(C)O)C(=O)C(C)(/C=C/C=C/C(C)O)O1` (configuration not stated) [PENICILLIOL B], the figure is 32.5 µM.
